The values below come from Sander's compilation of Henry's law constants (doi:10.1093/jxb/48.5.1095).

The structures appear in SMILES notation.

The series is described as follows: Henry solubility constant Hcp at 298.15 K (mol/(m3 Pa)). Particulars: reference: Merk and Riederer (1997).

`CCO` [ethanol]: the “Henry solubility constant Hcp” value was determined as 1.9.

For the molecule `CCC(C)(C)O` [2-methyl-2-butanol], the “Henry solubility constant Hcp” value was 0.7.

Regarding `CC(C)O` [2-propanol], the “Henry solubility constant Hcp” value worked out at 1.2.

As for `CCCCC(C)O` (stereo not given) [2-hexanol], the “Henry solubility constant Hcp” value was 0.48.

Consider `CCCCCO` [1-pentanol], for which the “Henry solubility constant Hcp” value is 0.77.

For the molecule `CCCCCCO` [1-hexanol], the “Henry solubility constant Hcp” value was 0.58.

`CC(C)CO` [2-methyl-1-propanol]: the “Henry solubility constant Hcp” value was 0.78.

Turning to `CCC(C)O` (stereo not given) [2-butanol], the “Henry solubility constant Hcp” value worked out at 0.83.

For the molecule `CCCO` [1-propanol], the “Henry solubility constant Hcp” value was determined as 1.5.

For `CCCC(C)O` (stereo not given) [2-pentanol], the “Henry solubility constant Hcp” value was 0.66.
